Results as given in ChEMBL document CHEMBL1151292, “Antineoplastic activity and cytotoxicity of flavones, isoflavones, and flavanones” (1979).
≈ marks a conversion by molar mass, not a printed value. Calls of active or inactive are those of the source. Unless noted, the calls are words filed in the database; no cut-off is given here.

What was measured:
B16 = test: In vivo antitumor activity against mouse B16 carcinoma cells; assay type: functional, organism-based
CCRF S-180 = test: In vivo antitumor activity against mouse S180 cells; assay type: functional, organism-based
L1210 = test: In vivo antitumor activity against mouse L1210 cells; assay type: functional, organism-based
P388 = test: In vivo antitumor activity against mouse P388 cells; assay type: functional, organism-based
CA-755 = test: In vivo antitumor activity against mouse CA-755 cells; assay type: functional, organism-based
[1] = tested on: Lewis lung carcinoma cell line; test: In vivo antitumor activity against mouse LLC cells; assay type: functional, organism-based
KB = test: Cytotoxicity against human KB cells; assay type: functional; details: read-out: ED50 (the source's name)
FV = test: In vivo antitumor activity against mouse FV cells; assay type: functional, organism-based
P1798 = test: In vivo antitumor activity against mouse P1798 cells; assay type: functional, organism-based
Rattus norvegicus = test: In vivo antitumor activity against rat dunning leukemia cells; assay type: functional, organism-based
PX = test: In vivo antitumor activity against hamster PX cells; assay type: functional, organism-based; details: Cricetinae
P1 = test: In vivo antitumor activity against hamster P1 cells; assay type: functional, organism-based; details: Cricetinae

SMILES | Activity (B16) | Activity (CCRF S-180) | Activity (L1210) | Activity (P388) | Activity (CA-755) | Activity [1] | EC50 (KB) | Activity (FV) | Activity (P1798) | Activity (Rattus norvegicus) | Activity (PX) | Activity (P1)
O=c1c(O)c(-c2ccccc2)oc2ccccc12 [FLAVONOL] | inactive | inactive | inactive | inactive | inactive | inactive | 0.2 µg/mL (≈ 0.839 µM) | – | – | – | – | –
COc1cccc(OC)c1-c1oc2ccccc2c(=O)c1O | – | inactive | inactive | inactive | – | – | 1 µg/mL (≈ 3.35 µM) | inactive | – | – | – | –
O=c1c(O)c(-c2cc(O)c(O)c(O)c2)oc2cc(O)cc(O)c12 [MYRICETIN] | inactive | – | inactive | – | – | – | 15 µg/mL (≈ 47.1 µM) | – | – | – | – | –
COc1cc(O)c2c(=O)cc(-c3ccccc3)oc2c1 [TECHTOCHRYSIN] | – | – | inactive | – | – | – | 49 µg/mL (≈ 183 µM) | – | inactive | inactive | – | –
Cc1ccc2oc(-c3ccccc3)c(O)c(=O)c2c1 | inactive | inactive | inactive | inactive | – | – | 2 µg/mL (≈ 7.93 µM) | – | – | – | – | –
COc1ccc(-c2cc(=O)c3c(OC)c(OC)c(OC)c(OC)c3o2)cc1 [TANGERETIN] | – | inactive | inactive | – | inactive | – | 15 µg/mL (≈ 40.3 µM) | – | – | – | Active | inactive
O=c1cc(-c2ccc(O)cc2)oc2cc(O)cc(O)c12 [APIGENIN] | – | – | inactive | – | – | – | 7.4 µg/mL (≈ 27.4 µM) | – | inactive | inactive | – | –
